Read-outs that look alike come from different tables or passages of the source.
Key:
[1] = tested on: Kornkäfer (sitophilus granarius L); assay: whole plant or invertebrate; assay type: in vivo; conditions: for mortality at 1000 µg/mL: read-out: Wirksamkeit in % Substanz allein
Outline: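 Acetone solutions (2 ml) were dried as films in 15 cm Petri dishes and 25 grain weevils added per dish, with a filter inserted after 1 h. Dead beetles were counted at 3 h at 19–21 °C, and % mortality and the synergistic factor were derived.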

Drosophila melanogaster = assay: whole plant or invertebrate; assay type: in vivo; conditions: for Faktor der Wirkungssteigerung bei Dimi-tilan: amine 0,05 % + Dimetilan 0,0001 %
Excerpt: Die insektiziden Wirkungen von tertiären heterocyclischen Aminen und die synergistischen Eigenschaften mit dem Phosphorsäureester Dimethoat und dem Carbamat Dimetilan, getestet an Drosophila melanogaster.
Die Versuche wurden in Petrischalen von 10 cm Durchmesser ausgeführt. Es wurden zunächst die gerade noch wirksamen Konzentrationen von Dimethoat und Dimetilan bestimmt. Für Dimethoat wurde 0,005 % und für Dimetilan 0,0001 % als günstige Versuchskonzentration ermittelt. Die Aminkomponente wurde mit 1 ml 0,05%iger Lösung + 1 ml Aceton auf insektizide Wirkung getestet. Zur Bestimmung des Synergismus wurde 1 ml 0,05%ige Aminlösung + 1 ml 0,005.%ige Dimethoatlösung, bzw. + 1 ml 0,0001%ige Dimetilanlösung pro Petrischale eingesetzt. Alle Verdünnungen wurden mit Aceton als Lösungsmittel hergestellt.
In den Petrischalen wurden die Lösungen am Boden gut verteilt und 30 min lang antrocknen lassen. In jede Petrischale wurden 20 mit Kohlendioxid betäubte Drosophila eingezählt. Alle 5 min, insgesamt 12 mal, wurde die Anzahl der toten Drosophila ausgezählt und notiert. Die Zahlen wurden aufsummiert und im Verhältnis zur möglichen Zahl an toten Drosophila in % angegeben, wobei der Tot aller Drosophila innerhalb der ersten 5 min 100 % Wirkung entspricht. Jeder Versuch wurde mit 3 Wiederholungen durchgeführt. In Tabelle 1 sind die Mittelwerte der Ergebnisse zusammengestellt.
Zur Ermittlung des synergistischen Faktors wurden die Einzelwerte pro Zeiteinheit durch die für Dimethoat, bzw. Dimetilan für die jeweilige Zeiteinheit gefundenen Werte dividiert. Die Werte für jede Zeiteinheit wurden summiert und durch die Anzahl der Zeiteinheiten dividiert. Die Versuche wurden bei sonst stets gleichbleibenden Bedingungen bei Temperaturen von 20 - 22°C ausgeführt. Die Kontrollversuche zeigten bei Versuchsabschluß stets 0 % Mortalität. Hat die Substanz selbst eine insektizide Wirkung, so wurden die Wirkungsfaktoren für Dimethoat und Dimetilan nach Abzug des Substanzwertes berechnet und in der Tabelle aufgeführt.
Im Beispiel 1 war das Verhältnis von Insektizid und erfindungsgemäßem Amin 1 : 10 in den Gemischen mit Dimethoat. In der Tabelle 2 sind Verhältnisse von 1 : 1, 1 : 2 und 1 : 0,2 bei Versuchen mit Dimethoat aufgeführt, dabei wurde das Dimethoat immer in einer Konzentation von 0,005 % eingesetzt. Die Tabelle zeigt, daß auch bei diesen Verhältnissen noch eine gute synergistische Wirkung vorhanden ist, und es keineswegs einer großen überdosierung des Amins bedarf.

[2] = amine 1 mg/ml + Ripcord 0,01 mg/ml
[3] = amine 1 mg/ml + Talcord 0,01 mg/ml
[4] = amine 1 mg/ml in Aceton mixed 1 : 1 with Aceton, 2 ml per dish, 25 weevils, dead counted after 3 h
[5] = amine 1 mg/ml mixed 1 : 1 with Ripcord 0,01 mg/ml, 3 h
[6] = amine 1 mg/ml mixed 1 : 1 with Talcord 0,01 mg/ml, 3 h
[7] = 1 ml 0,05%ige amine solution + 1 ml 0,0001%ige Dimetilan solution
[8] = 1 ml 0,05%ige amine solution + 1 ml 0,005 %ige Dimethoat solution (Dimethoat : amine 1 : 10)
[9] = 1 ml 0,05%ige amine solution + 1 ml Aceton per dish, 20 flies, dead counted every 5 min, 12 times, mean values
[10] = amine 0,05 % + Dimethoat 0,005 %, calculated after subtracting the amine's own effect
[11] = calculated after subtracting the amine's own effect
[12] = Sitophilus granarius, amine 1 mg/ml in Aceton mixed 1 : 1 with Aceton, 2 ml per dish, 25 weevils, dead counted after 3 h
[13] = Drosophila melanogaster, 1 ml 0,05%ige amine solution + 1 ml Aceton per dish, 20 flies, dead counted every 5 min, 12 times, mean values, read-out: Wirksamkeit in % Substanz allein
[14] = sitophilus granarius, in vivo, 3 h
[15] = drosophila melanogaster, in vivo
[16] = Pyrethroid : Amin 1 : 10, amine 0,1 mg/ml, 180 min

Row | Compound | Synergistischer Faktor bei Ripcord [1, 2] | Synergistischer Faktor bei Talcord [1, 3] | Wirksamkeit in % Substanz +Ripcord [1, 5] | Wirksamkeit in % Substanz +Talcord [1, 6] | Wirksamkeit in % Substanz +Dimeti-lan (Drosophila melanogaster; [7]) | Wirksamkeit in % Substanz +Dimethoat (Drosophila melanogaster; [8]) | Wirksamkeit in % Substanz allein (Drosophila melanogaster; [9]) | Faktor der Wirkungssteigerung bei Dime-methoat (Drosophila melanogaster; [10]) | Faktor der Wirkungssteigerung bei Dimi-tilan (Drosophila melanogaster; [11]) | mortality at 1000 µg/mL [1, 12] [%] | mortality at 0.05 % (Drosophila melanogaster; [13]) [%] | also measured
1 | C=CC(C)(CCC=C(C)C)N1CCOCC1 (stereo not shown) [N-1-Linalyl-morpholin] | 2,92 | 3,42 | 92,0% | 33,2% | 20,0% | 30,8% | 11,7% | 2,22 | 3,32 | – | – | Wirksamkeit in % Substanz allein [1, 4]: 0%
2 | CCCCCCCCCCN1CCCC1 [N-1-Decyl-pyrrolidin] | – | 1,90 | 100,0% | 100,0% | 4,8% | 17,1% | – | 1,65 | – | 81.6 | 2.9 | –
3 | CCCCCCCCCCN1CCCCCC1 [N-Decyl-hexamethylenimin] | 1,35 | – | 93,2% | 62,8% | 68,8% | 65,0% | – | 1,84 | 7,84 | 69.2 | 49.2 | –
4 | CCCCCCCCCCN1CCCCC1C (stereo not shown) [N-Decyl-2-methyl-piperidin] | – | – | – | – | 77,9% | 66,7% | – | – | 2,87 | – | 61.3 | –
5 | CCCCOCCOCCOCCN1CCCC1 [N-(a-Butyl-triethylen-tri-ether-(w))-pyrrolidin] | 3,05 | 1,24 | 96,0% | 13,2% | 1,7% | 23,3% | 0% | 2,97 | – | – | – | Wirksamkeit in % Substanz allein [1, 4]: 0%
6 | CCCCCCCCCCCCCCN1CCOCC1 [N-1-Tetradecyl-morpholin] | 2,03 | – | 64,0% | 5,2% | 2,5% | 57,1% | – | 6,64 | – | 0 | 0 | –
7 | Cc1cc(OC(=O)N(C)C)nn1C(=O)N(C)C [Dimetilan, reference compound] | – | – | – | – | – | – | – | – | – | – | – | mortality at 0.0001 % (Drosophila melanogaster; Drosophila melanogaster, read-out: Wirksamkeit von Dimetilan): 2.5%
8 | CCCCCC(CCCCC)N1CCCC1 [6-N-Pyrrolidino-undecan] | 1,90 | 6,06 | 60,0% | 58,8% | 75,8% | 54,2% | 39,6% | 1,70 | 14,48 | – | – | Wirksamkeit in % Substanz allein [1, 4]: 0%
9 | CCCCOCCOCCN1CCOCC1 [N-(2'-Butoxi-diethylether-(2))-morpholin] | – | – | – | – | – | – | – | – | – | – | – | Synergistischer Faktor bei Ripcord ([1]; in vivo): 2,96; Synergistischer Faktor bei Talcord ([1]; in vivo): 8,12; Wirksamkeit in % Substanz +Ripcord [1, 14]: 93,2%; Wirksamkeit in % Substanz +Talcord [1, 14]: 78,8%; Wirksamkeit in % Substanz allein [1, 14]: 0%; Wirksamkeit in % Substanz +Dimethoat (Drosophila melanogaster; [15]): 12,9%; Wirksamkeit in % Substanz +Dimeti-lan (Drosophila melanogaster; [15]): 3,5%; Wirksamkeit in % Substanz allein (Drosophila melanogaster; [15]): 1,7%; Faktor der Wirkungssteigerung bei Dime-methoat (Drosophila melanogaster; in vivo): 1,30
10 | CCCCCCCCCCN1CCCCC1 [N-1-Decyl-piperidin] | – | – | – | – | – | – | – | – | – | – | – | Synergistischer Faktor bei Ripcord ([1]; Pyrethroid : Amin 1 : 10): 3,09; Synergistischer Faktor bei Talcord ([1]; Pyrethroid : Amin 1 : 10): 6,72; % Wirkung Substanz +Ripcord [1, 16]: 97,2%; % Wirkung Substanz +Talcord [1, 16]: 65,2%; mortality at 100 µg/mL ([1]; Sitophilus granarius, 3 h, amine 0,1 mg/ml (as for Pyrethroid : Amin 1 : 10), read-out: % Wirkung Substanz allein): 0%; mortality at 0.005 % (Drosophila melanogaster; Drosophila melanogaster, amine 0,005 %, read-out: Sub-stanz allein): 0%; Substanz + Dime-thoat (Drosophila melanogaster; amine 0,005 % + Dimethoat 0,005 %, Dimethoat : Amin 1 : 1): 45,4%; Faktor der Wirkungs-steigerung (Drosophila melanogaster; amine 0,005 %, Dimethoat : Amin 1 : 1): 5,28
11 | CCCCCCCCCCCCCN1CCCCC1 [N-1-Tridecyl-piperidin] | 3,05 | 1,77 | 96,0% | 17,2% | 2,3% | 54,6% | – | 6,35 | – | 0 | 0 | mortality at 0.01 % (Drosophila melanogaster; Drosophila melanogaster, amine 0,01 %, read-out: Sub-stanz allein): 0%; mortality at 0.05 % (Drosophila melanogaster; Drosophila melanogaster, amine 0,05 %, read-out: Sub-stanz allein): 0%; Substanz + Dime-thoat (Drosophila melanogaster; amine 0,01 % + Dimethoat 0,005 %, Dimethoat : Amin 1 : 2): 42,9%; Faktor der Wirkungs-steigerung (Drosophila melanogaster; amine 0,01 %, Dimethoat : Amin 1 : 2): 4,99; Substanz + Dime-thoat (Drosophila melanogaster; amine 0,05 % + Dimethoat 0,005 %, Dimethoat : Amin 1 : 10): 54,6%; Faktor der Wirkungs-steigerung (Drosophila melanogaster; amine 0,05 %, Dimethoat : Amin 1 : 10): 6,35
12 | C=CC(C)(CCC=C(C)C)N1CC1 (stereo not shown) [N-1-Linalyl-aziridin] | 2,99 | 6,72 | 97,2% | 65,2% | 0,42% | 21,7% | 0% | 2,67 | – | – | – | Wirksamkeit in % Substanz allein [1, 4]: 0%
13 | c1ccc(OCCCN2CCCCC2)cc1 [N-(1-Phenoxi-propyl-(3))-piperidin] | 2,96 | 3,01 | 93,2% | 29,2% | 12,1% | 8,8% | 0% | – | 4,8 | – | – | Wirksamkeit in % Substanz allein [1, 4]: 0%
14 | C(=Cc1ccccc1)CN1CCCCC1 [N-Cinnamyl-piperidin] | 3,08 | 7,01 | 97,2% | 68,0% | 82,5% | 77,1% | – | 1,25 | 6,48 | 0 | 66.3 | –
15 | c1cc2c(cc1CN1CCCC1)OCO2 [N-Piperonyl-pyrrolidin] | 1,87 | 4,29 | 100,0% | 82,8% | 58,3% | 60,0% | – | 3,63 | 11,80 | 41.2 | 28.8 | –
16 | CCCCCCCCCN1CCCCC1CC (stereo not shown) [1-n-Nonyl-2-ethyl-piperidin] | – | – | – | – | 7,9% | 24,6% | – | 2,19 | – | – | 5.8 | –
17 | CCCCCCCCCCN1CCCCC1CC (stereo not shown) [N-1-Decyl-2-ethyl-piperidin] | – | – | – | – | 56,3% | 55,8% | – | 2,42 | 8,52 | – | 35 | –
18 | C(=CC1CCCCC1)CN1CCCC1 [N-(3-Cyclohexyl-propen-(2))-pyrrolidin] | – | – | – | – | 0% | 22,5% | 0% | 2,86 | – | – | – | –
